Marks after values point to notes of the source that are not given here.
Key:
[1] = target: MT1; details: cited from earlier work
[2] = target: MT2; details: cited from earlier work
[3] = target: T1, human MT1 receptor (Homo sapiens, UniProt P48039); assay: 2-[125I]iodomelatonin competition binding, human MT1 in NIH3T3 cell membranes; details: 2-[125I]iodomelatonin 100 pM, 90 min 37 °C; Cheng-Prusoff; mean of at least three determinations in duplicate; read-out: hMT1 pKi (±SD) (converted)
T1 construct: expressed in transfected cells; host or cells: NIH3T3 fibroblast cells, stably transfected; membranes used
T1 sequence (P48039 whole entry): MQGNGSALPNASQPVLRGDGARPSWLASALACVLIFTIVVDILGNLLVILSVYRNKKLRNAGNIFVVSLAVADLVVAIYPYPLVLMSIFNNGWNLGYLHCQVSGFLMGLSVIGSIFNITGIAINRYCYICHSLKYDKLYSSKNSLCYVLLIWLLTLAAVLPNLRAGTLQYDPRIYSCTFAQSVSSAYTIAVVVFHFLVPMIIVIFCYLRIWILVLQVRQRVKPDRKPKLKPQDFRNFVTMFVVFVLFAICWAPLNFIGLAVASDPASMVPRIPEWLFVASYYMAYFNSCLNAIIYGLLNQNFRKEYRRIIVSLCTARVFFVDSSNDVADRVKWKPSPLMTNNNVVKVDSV
Protocol: (§1) The newly synthesized alpha- and beta-methyl N-anilinoethylamides were evaluated for their binding affinity at human MT1 and MT2 receptors stably transfected in NIH3T3 cells using 2-[^125I]iodomelatonin as radiolabelled ligand.
(§2) Binding affinities were determined using 2- [^125I]iodomelatonin as the labeled ligand in competition experiments on cloned human MT1 and MT2 receptors expressed in NIH3T3 […] fibroblast cells. The characterization of NIH3T3-MT1 and -MT2 cells had been already described in detail. Membranes were incubated for 90 min at 37 °C in binding buffer (Tris-HCl, 50 mM, pH 7.4). The final membrane concentration was 5−10 μg of protein per tube. The membrane protein level was determined in accordance with a previously reported method. […] The pKi values were calculated from the IC50 values in accordance with the Cheng−Prusoff equation [21]. The pKi values are the mean of at least three independent determinations performed in duplicate.

[4] = target: T2, human MT2 receptor (Homo sapiens, UniProt P49286); assay: 2-[125I]iodomelatonin competition binding, human MT2 in NIH3T3 cell membranes; details: 2-[125I]iodomelatonin 100 pM, 90 min 37 °C; Cheng-Prusoff; mean of at least three determinations in duplicate; read-out: hMT2 pKi (±SD) (converted)
T2 construct: expressed in transfected cells; host or cells: NIH3T3 fibroblast cells, stably transfected; membranes used
T2 sequence (P49286 1-362): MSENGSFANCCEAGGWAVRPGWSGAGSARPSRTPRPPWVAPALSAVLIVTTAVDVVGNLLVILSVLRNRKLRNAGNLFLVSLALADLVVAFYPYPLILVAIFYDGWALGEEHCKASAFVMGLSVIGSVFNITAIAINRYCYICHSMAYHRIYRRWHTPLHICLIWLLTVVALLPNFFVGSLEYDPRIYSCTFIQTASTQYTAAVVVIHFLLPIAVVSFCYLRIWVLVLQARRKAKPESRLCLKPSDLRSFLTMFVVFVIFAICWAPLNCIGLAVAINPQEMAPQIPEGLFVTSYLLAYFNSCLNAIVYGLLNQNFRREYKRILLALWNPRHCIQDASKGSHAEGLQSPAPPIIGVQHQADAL
Protocol: as §1, §2

[5] = target: T1, human MT1 receptor; details: relative to melatonin; cited from earlier work
[6] = target: T2, human MT2 receptor; details: relative to melatonin; cited from earlier work

COc1cc2c([C@@H](C)CNC(C)=O)c[nH]c2cc1Cl [TIK-301, (R)-β-methyl-6-chloro-melatonin]
Ki [1]: 0.081 nM
Ki [2]: 0.042 nM

CCC(=O)NC[C@H](CO)c1cccc2ccc(OC)cc12 [compound 1, (R)-N-[3-hydroxy-2-(7-methoxynaphthalen-1-yl)propyl]propanamide]
pKi(MT1) [1]: 8.47
pKi(MT2) [2]: 9.50

COc1cccc(O[C@@H](C)CNC(C)=O)c1 [compound 2, (S)-N-[2-(3-methoxyphenoxy)propyl]acetamide]
pKi(MT1) [1]: 8.77
pKi(MT2) [2]: 8.33

COc1cccc(N(C)CCNC(C)=O)c1 [compound 3, N-{2-[(3-methoxyphenyl)methylamino]ethyl}acetamide]
Ki [3]: 1.74 nM
Ki [4]: 2.24 nM
hMT1 IA, relative intrinsic activity [5]: 0.95 ^c
hMT2 IA, relative intrinsic activity [6]: 1.06 ^c

Source: article PMC7570888 (Molecules, 2020)
